Results from patent EP2392568A1, “Heterocyclic amino acids for prostate cancer imaging” (priority 2010, dated 2011).

Legend:
DU145 xenografts = test: PET/CT-imaging in DU145-tumor bearing mice; format: in vivo; settings: microPET/CT; for renal clearance / background activity: 50-70min after injection; for tumor-contrast: 50-70min after injection of - 10 MBq radiotracer; for background activity: except for kidney and bladder uptake
Protocol: Example 9 was imaged on a microPET/ CT (Inveon, Siemens) in DU145 tumor-bearing mice 50-70min after injection of - 10 MBq radiotracer 45.
Example 10 was imaged on a microPET/ CT (Inveon, Siemens) in DU145 tumor-bearing mice 50-70min after injection of - 10 MBq radiotracer 46.

[1] = system: primary prostate cancer tumors; settings: prostate cancer patients, cited from earlier work; for uptake into primary prostate cancer tumors: Schuster et al., abstract at SNM 2010
[2] = McConathy and Goodman, Cancer Metastasis Rev. 2008; cited from earlier work
[3] = system: DU145 prostate cancer cells; test: Cell-uptake experiment: uptake of [14C] ACPC in the presence of excess heterocyclic amino acid; format: cell-based; settings: 5 µM 14C-ACPC, 60 minutes at 37°C, uptake buffer PBS with 0.1% BSA, Figure 10
Protocol: To assess the difference between heterocyclic amino acids and other non-natural amino acids, we studied the uptake of the cyclic amino acid [14C] ACPC into DU145 prostate cancer cells in the presence of excess amount of an heterocyclic amino acid (compound 15). 25000 DU145 cells were seeded per cavity of a 48 well incubation plate (Becton Dickinson; Cat. 353078) and incubated for 2 days in D-MEM / F-12 (1:1) with GlutaMAx (Invitrogen; Cat. 31331) medium supplemented with 10% FCS in an incubator (37°C, 5%CO2).

SMILES	renal clearance (DU145 xenografts)	tumor-contrast (DU145 xenografts)	background activity (DU145 xenografts)	uptake into primary prostate cancer tumors [1]	background in other organs [1]	renal elimination / excretion into the bladder [1]	other results
NC1(C(=O)O)COCC1[18F] (racemic) [tracer 45, (3SR,4SR)-3-Amino-4-[^18F]fluorotetrahydrofuran-3-carboxylic acid]	rapid renal clearance	High tumor-contrast	very low background activity				
NC1(C(=O)O)CCCC1[18F] (centres unmarked) [2-FACPC]				showed uptake into primary prostate cancer tumors	high background signals for instance in the blood pool	excreted into the bladder more rapidly	
NC1([11C](=O)O)CCC1 [[11C]ACBC, 1-aminocyclobutane-1-[11C]carboxylic acid]							metabolism [2]: not metabolized
N[C@]1(C(=O)O)COC[C@H]1F (racemic) [compound 15, (3SR,4SR)-3-Amino-4-fluorotetrahydrofuran-3-carboxylic acid]							[14C] ACPC uptake into DU145 prostate cancer cells in the presence of excess amount of heterocyclic amino acid [3]: able to block [14C] ACPC uptake
N[C@@]1(C(=O)O)CCOC[C@@H]1[18F] (racemic) [tracer 46, (3RS,4RS)-4-Amino-3-[^18F]fluoro-3,4,5,6-tetrahydro-2H-pyran-4-carboxylic acid]	rapid renal clearance	High tumor-contrast	very low background activity				
N[C@]1(C(=O)O)C[C@@H](F)C1 [3-FACBC, anti-1-amino-3-[18F]fluorocyclobutyl-1-carboxylic acid]				showed uptake into primary prostate cancer tumors	high background in other organs such as liver and heart	delayed renal elimination	
